Source: paper PMC9880324, “Sugar perception in honeybees” (Frontiers in Physiology, 2023)

What was measured:
[1] = biological target: T1, AmGr3 (Apis mellifera, UniProt A0A7M7IGL4); test: two-electrode voltage clamp, Xenopus oocytes; format: cell-based; conditions: 160 mM sugar, pH 7.5, -80 and -140 mV; agonist
T1 construct: gene LOC725483; cDNA cloned from taste tissue, subcloned in pNBIu, cRNA expressed alone in Xenopus oocytes
T1 sequence (A0A7M7IGL4 1-474): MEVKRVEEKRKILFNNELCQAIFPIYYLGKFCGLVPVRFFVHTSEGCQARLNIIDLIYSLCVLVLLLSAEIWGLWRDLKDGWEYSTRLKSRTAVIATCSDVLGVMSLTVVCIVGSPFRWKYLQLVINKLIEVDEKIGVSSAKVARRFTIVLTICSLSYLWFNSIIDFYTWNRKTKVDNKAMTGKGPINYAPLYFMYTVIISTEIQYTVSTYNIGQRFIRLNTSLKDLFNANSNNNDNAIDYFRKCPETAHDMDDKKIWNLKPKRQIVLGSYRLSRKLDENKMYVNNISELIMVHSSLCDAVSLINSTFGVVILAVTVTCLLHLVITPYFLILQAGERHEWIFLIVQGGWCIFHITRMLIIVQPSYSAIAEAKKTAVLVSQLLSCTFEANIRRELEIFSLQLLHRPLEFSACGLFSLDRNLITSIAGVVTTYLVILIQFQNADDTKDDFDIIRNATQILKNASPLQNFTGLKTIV

[2] = biological target: T2, AmGr2 (Apis mellifera, UniProt A0A7M7R6T6); test: two-electrode voltage clamp, Xenopus oocytes; format: cell-based; conditions: 160 mM sugar, pH 7.5, -80 mV, agonist
T2 construct: gene LOC413684; cDNA cloned from taste tissue, subcloned in pNBIu, cRNA expressed alone in Xenopus oocytes; homomer
T2 sequence (A0A7M7R6T6 1-470): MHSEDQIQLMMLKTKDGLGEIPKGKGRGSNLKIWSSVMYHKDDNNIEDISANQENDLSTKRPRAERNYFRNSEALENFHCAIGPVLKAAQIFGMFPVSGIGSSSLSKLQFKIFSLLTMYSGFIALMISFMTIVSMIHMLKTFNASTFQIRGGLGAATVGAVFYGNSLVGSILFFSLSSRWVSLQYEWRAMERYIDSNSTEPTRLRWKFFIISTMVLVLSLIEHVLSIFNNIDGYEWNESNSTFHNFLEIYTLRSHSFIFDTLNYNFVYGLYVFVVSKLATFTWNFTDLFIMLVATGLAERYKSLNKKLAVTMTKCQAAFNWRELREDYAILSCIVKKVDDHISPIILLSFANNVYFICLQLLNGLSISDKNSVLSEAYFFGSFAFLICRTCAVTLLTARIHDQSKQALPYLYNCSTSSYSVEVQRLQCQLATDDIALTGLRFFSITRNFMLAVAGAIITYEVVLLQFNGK

OCC1(O)OC[C@@H](O)[C@@H](O)[C@@H]1O (stereo partly drawn) [fructose]
two-electrode voltage clamp, Xenopus oocytes [1]: The sole expression of AmGr3 in oocytes revealed only fructose-induced current responses

OC[C@H]1O[C@@](CO)(O[C@H]2O[C@H](CO)[C@@H](O)[C@H](O)[C@H]2O)[C@@H](O)[C@@H]1O [sucrose]
two-electrode voltage clamp, Xenopus oocytes ([2]; microscopic inward current): Sustained inward currents could only be generated by application of sucrose

OC[C@H]1OC(O)[C@H](O)[C@@H](O)[C@@H]1O (stereo partly drawn) [glucose]
two-electrode voltage clamp, Xenopus oocytes ([2]; transient microscopic inward current): AmGr2-expression revealed transient inward currents during glucose application
